Measurements from patent US10907197B2, “Probes for imaging huntingtin protein” (CHDI Foundation, Inc., priority 2014, dated 2021).

Target: T1, Q46 protein aggregates (Homo sapiens, UniProt P42858, INS38QQQQQQQQQQQQQQQQQQQQQQQQQ)
T1 construct: 33 μM GST-Q46 was incubated with 150 μg/mL thrombin in assay buffer (150 mM NaCl, 50 mM Tris pH 8.0) and 2 mM CaCl2 for 16 hr at 37° C; fused on or other part: GST at the N-terminus
Experiment: Q46 Radioligand Binding Assay (RBA)
Conditions: displacement of 10 nM [3H3]MK-3328 from 5 μM Q46 protein aggregates, 60 min at 37° C.
Experimental: Q46 Radioligand Binding Assay
For radioligand binding assays (RBA) GST-Q46 protein was generated based on a previous publication (Scherzinger et al. Cell, Vol. 90, 549-558, Aug. 8, 1997). For experiments 33 μM GST-Q46 was incubated with 150 μg/mL thrombin in assay buffer (150 mM NaCl, 50 mM Tris pH 8.0) and 2 mM CaCl2 for 16 hr at 37° C. Aggregated Q46 was pelleted by centrifugation for 5 min at 13,000 rpm in a bench top centrifuge and re-dissolved in the same volume of assay buffer. Test compounds were prepared by titration in DMSO at 11 concentrations from 33 μM to 1 nM. For the RBA, Q46 protein aggregates and test compounds were pre-incubated in assay buffer for 20 min at room temperature, in 140 μL/well in a 96-well plate (pp, round bottom). Then, ligand was added in 10 μL/well and incubated for 60 min at 37° C. Final assay concentrations were 1 μM to 30 pM test compound, 5 μM Q46 protein (equivalent monomer concentration) and 10 nM ligand [^3H3]MK-3328 (Harrision et al., ACS Med. Chem. Lett., 2 (2011), pp 498-502). Samples were transferred onto GF/B filter plates and washed 2× with 200 μL PBS using a Filtermate Harvester. After drying filter plates for 1 hr at 37° C., the back of the plates was sealed with foil and 30 μL/well scintillation fluid (Packard MicroScint 40) was added, incubated for incubated for 15 min in the dark and counted in a TopCount reader. […] IC50 values were determined with a sigmoidal inhibition model with four variables (top, bottom, slope, IC50) in a global fit using the normalized replicate data.

T1 sequence (P42858 with tags, fused parts or gaps with the stated changes): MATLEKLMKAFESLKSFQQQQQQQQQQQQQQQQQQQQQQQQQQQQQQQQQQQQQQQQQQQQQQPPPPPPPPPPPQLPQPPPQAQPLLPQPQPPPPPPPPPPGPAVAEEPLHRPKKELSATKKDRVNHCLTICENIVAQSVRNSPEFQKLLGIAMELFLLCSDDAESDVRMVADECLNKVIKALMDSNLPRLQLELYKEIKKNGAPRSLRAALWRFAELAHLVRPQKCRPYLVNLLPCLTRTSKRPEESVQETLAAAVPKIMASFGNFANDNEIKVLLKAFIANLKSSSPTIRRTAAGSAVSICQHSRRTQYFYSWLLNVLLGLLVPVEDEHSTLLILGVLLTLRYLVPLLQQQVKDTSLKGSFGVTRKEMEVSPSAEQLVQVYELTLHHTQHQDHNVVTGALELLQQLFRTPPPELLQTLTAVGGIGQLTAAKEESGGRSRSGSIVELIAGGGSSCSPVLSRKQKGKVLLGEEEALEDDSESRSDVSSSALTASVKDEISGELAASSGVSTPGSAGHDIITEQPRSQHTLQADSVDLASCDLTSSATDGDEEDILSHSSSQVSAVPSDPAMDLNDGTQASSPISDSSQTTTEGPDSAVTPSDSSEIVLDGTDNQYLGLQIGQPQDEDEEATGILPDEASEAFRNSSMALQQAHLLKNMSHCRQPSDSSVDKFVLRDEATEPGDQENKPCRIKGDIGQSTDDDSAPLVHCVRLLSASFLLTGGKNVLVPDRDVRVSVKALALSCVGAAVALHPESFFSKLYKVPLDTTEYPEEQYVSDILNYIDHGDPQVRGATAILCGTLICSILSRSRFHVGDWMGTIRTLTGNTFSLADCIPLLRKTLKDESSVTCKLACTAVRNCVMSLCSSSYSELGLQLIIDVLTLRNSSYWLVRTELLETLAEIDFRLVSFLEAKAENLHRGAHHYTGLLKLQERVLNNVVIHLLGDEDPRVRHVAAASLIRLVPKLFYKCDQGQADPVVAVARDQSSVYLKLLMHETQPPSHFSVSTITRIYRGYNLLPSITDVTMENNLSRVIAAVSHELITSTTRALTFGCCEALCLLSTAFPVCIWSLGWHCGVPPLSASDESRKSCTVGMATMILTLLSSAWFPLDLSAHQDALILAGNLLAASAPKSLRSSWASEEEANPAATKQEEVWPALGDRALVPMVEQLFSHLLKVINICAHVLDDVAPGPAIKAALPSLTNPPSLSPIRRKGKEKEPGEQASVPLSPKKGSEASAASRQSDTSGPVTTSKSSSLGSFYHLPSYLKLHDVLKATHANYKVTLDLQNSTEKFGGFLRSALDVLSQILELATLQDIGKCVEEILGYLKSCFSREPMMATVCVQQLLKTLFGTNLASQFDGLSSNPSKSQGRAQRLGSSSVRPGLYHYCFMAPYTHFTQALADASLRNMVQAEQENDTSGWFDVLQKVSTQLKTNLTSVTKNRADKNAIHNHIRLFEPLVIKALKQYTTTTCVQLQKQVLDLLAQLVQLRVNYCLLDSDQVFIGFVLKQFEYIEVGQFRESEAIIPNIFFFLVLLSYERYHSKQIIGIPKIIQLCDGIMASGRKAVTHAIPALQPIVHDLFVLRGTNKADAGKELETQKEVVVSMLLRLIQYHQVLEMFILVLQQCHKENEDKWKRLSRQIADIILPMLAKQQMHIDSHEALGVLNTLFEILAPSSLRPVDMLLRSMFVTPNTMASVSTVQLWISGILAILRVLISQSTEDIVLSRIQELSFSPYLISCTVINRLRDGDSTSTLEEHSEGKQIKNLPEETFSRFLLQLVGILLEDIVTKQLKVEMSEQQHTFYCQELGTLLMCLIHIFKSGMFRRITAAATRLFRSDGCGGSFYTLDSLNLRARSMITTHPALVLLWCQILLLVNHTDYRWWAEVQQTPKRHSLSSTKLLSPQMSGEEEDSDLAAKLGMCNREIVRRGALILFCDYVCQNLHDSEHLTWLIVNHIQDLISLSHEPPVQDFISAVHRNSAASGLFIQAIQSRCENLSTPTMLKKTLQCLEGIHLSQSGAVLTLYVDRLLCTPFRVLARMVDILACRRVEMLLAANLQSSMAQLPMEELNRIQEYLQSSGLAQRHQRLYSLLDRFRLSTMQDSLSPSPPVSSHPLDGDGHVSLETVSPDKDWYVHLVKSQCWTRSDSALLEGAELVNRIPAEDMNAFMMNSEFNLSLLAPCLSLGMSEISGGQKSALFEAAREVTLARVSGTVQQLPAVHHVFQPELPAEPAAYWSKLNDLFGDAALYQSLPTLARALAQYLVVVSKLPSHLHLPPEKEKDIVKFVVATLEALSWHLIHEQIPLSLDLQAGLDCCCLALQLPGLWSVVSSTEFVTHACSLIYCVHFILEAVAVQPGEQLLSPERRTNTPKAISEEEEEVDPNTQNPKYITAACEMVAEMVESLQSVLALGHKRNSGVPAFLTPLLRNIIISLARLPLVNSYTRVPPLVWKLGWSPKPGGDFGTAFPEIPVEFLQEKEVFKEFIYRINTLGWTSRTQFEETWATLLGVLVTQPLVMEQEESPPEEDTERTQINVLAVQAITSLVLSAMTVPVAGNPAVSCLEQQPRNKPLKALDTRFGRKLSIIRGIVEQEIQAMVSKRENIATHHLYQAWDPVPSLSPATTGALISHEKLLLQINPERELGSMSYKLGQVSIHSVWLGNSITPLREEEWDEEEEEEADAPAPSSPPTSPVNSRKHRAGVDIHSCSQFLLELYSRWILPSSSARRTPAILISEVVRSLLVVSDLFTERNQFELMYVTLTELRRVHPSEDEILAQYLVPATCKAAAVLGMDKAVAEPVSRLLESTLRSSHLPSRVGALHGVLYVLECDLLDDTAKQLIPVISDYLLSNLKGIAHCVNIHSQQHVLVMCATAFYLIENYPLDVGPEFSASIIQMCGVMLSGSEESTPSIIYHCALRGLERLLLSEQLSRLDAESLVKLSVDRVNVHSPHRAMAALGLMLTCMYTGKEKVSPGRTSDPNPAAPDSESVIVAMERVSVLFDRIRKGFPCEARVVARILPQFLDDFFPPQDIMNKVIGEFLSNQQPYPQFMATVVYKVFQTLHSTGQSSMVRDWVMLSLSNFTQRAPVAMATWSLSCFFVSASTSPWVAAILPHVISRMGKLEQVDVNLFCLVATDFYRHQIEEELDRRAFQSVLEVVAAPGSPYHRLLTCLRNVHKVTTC

IC50 | SMILES
< 0.1 µM | COc1ccc2oc(-c3ccncc3C#N)c(C)c2c1 [4-(5-methoxy-3-methyl-1-benzofuran-2-yl)pyridine-3-carbonitrile]
< 0.1 µM | N#Cc1ccccc1-c1nc2cc3c(cc2o1)OCO3 [2-{4,6,10-trioxa-12-azatricyclo[7.3.0.0^3,^7]dodeca-1(9),2,7,11-tetraen-11-yl}benzonitrile]
< 0.1 µM | CN(CCO)c1ccc2oc(-c3ccncc3C#N)cc2c1 [4-{5-[(2-hydroxyethyl)(methyl)amino]-1-benzofuran-2-yl}pyridine-3-carbonitrile]
< 0.1 µM | COc1cc2cc(-c3ccncc3C#N)oc2cn1 [4-{5-methoxyfuro[2,3-c]pyridin-2-yl}pyridine-3-carbonitrile]
< 0.1 µM | COc1ccc2oc(C3=C(C#N)SC4=NCCN43)cc2c1 [3-(5-methoxy-1-benzofuran-2-yl)-5H,6H-imidazo[2,1-b][1,3]thiazole-2-carbonitrile]
< 0.1 µM | C#Cc1cnccc1-c1cc2cc(OC)ccc2o1 [3-ethynyl-4-(5-methoxy-1-benzofuran-2-yl)pyridine]
< 0.1 µM | N#Cc1cnccc1-c1nc2ccc(OCCF)cc2s1 [4-[6-(2-fluoroethoxy)-1,3-benzothiazol-2-yl]pyridine-3-carbonitrile]
> 0.5 µM | COc1ccc2oc(-c3ncnc(I)c3C#N)cc2c1 [4-iodo-6-(5-methoxy-1-benzofuran-2-yl)pyrimidine-5-carbonitrile]

Tested on: recombinant tau and amyloid β1-42 (Aβ1-42) aggregates
Experiment: not given
Conditions: higher affinity for the tau aggregates than Aβ1-42 aggregates; cited from earlier work

SMILES | ratio of Kd values
CN(C)c1ccc(/C=C/c2nc3ccc(I)cc3[nH]2)cc1 [SBIM-3, 4-[(E)-2-(6-iodo-1H-benzimidazol-2-yl)ethenyl]-N,N-dimethylaniline] | 2.73

Tested on: NFT in sections of AD brain tissue
Experiment: not given
Conditions: cited from earlier work

SMILES | binding to NFT
CN(C)c1ccc(/C=C/c2nc3ccc(I)cc3[nH]2)cc1 [SBIM-3, 4-[(E)-2-(6-iodo-1H-benzimidazol-2-yl)ethenyl]-N,N-dimethylaniline] | bound NFT in sections of AD brain tissue
